The numbers were not newly measured in patent publication US5711967A (Spirig AG, Pharmazeutische Praeparate, priority 1991, dated 1998), which cites them from elsewhere.

The conditions of data set [1]: above pKa value of approx. 4-5.
In a further data set the test system is mucosa. Particulars: release in the stomach.

For the compound `O=C(O)Cc1ccccc1Nc1c(Cl)cccc1Cl` [diclofenac], in data set [1], the “solubility in aqueous media” value is listed as “increases considerably above this value”. Besides, the “distribution into the synovial fluid” value (from the blood plasma) is “concentrate in the synovial fluid, with a delay”. In addition, the elimination half-life (non-delayed-action diclofenac) is 1 to 2 h. Moreover, the blood concentration half-life result (oral diclofenac preparations) was “one to two”. Moreover, the action on mucosa entry in the data set with mucosa is reported as “mucosa-irritating and/or mucosa-damaging”.
